Patent publication US20120244601A1, “[…] INDUCIBLE GENE […]” (priority 2011, published 2012)

Assays:
[1] = test system: M. smegmatis RiboS-katG; assay: Isoniazid antibiotic resistance assay, RiboS-katG strain
[2] = test system: β-galactosidase; assay: β-Galactosidase activity assay in M. smegmatis; assay type: cell-based
[3] = test system: GFP; assay type: cell-based, M. tuberculosis
[4] = test system: lacZ reporter gene; assay: β-galactosidase assay in B. subtilis; details: switches B and E compared
Method: B. subtilis strain JH642 (2) was grown at 37° C. in LB with shaking (250 rpm). […] To assay for β-galactosidase activity, strains harboring the riboswitches were grown overnight in LB media with 20 μg/mL kanamycin. In the morning, cells were diluted 1:100 into fresh selective media containing 1 mM IPTG and either 0 or 2 mM theophylline. β-galactosidase assays were performed by the method of Miller (13) using permeabilization with toluene. […] Error bars are ±SD.

Molecule: NNC(=O)c1ccncc1 [isoniazid]
- isoniazid EC50 with increasing theophylline concentrations ([1]; 0-10 mM theophylline): the EC50 decreases
- isoniazid phenotype in the absence of theophylline ([1]; no theophylline): isoniazid resistance phenotype

Molecule: Cn1c(=O)c2[nH]cnc2n(C)c1=O [theophylline]
- theophylline concentration of maximum β-galactosidase reporter expression [2]: ~2 mM
- theophylline concentration of maximal GFP expression [3]: ~2 mM

B1: Riboswitch B: synthetic theophylline-responsive riboswitch, mRNA sequence SEQ ID NO: 12 (nucleic acid)
chain: GGUACCGGUGAUACCAGCAUCGUCUUGAUGCCCUUGGCAGCACCCGCUGCGCAGGGGGUAUCAACAAGAUG
modifications: chemistry not fully specified
- activation ratios and levels of expression compared [4]: comparable activation ratios, but substantially different levels of expression
